From patent US10981186B2, “Functional treatment application to particulate materials such as mulch or potting soil” (priority 2014, dated 2021)

How the values were obtained:
[1] = Screening test 4: recovery of herbicide active ingredient from mulch (methanol extraction, HPLC); assay type: physicochemical
Protocol: Screening test 4: Recovery of functional material from particulate material
In this experimental study the herbicide active ingredient was analyzed as the content of functional material (herbicide) as the active ingredient in the particulate material (mulch).
Assay protocol: Ten milliliters of 100% methanol was used to extract the herbicide actives, Pendimethalin and Dimethenamid-P from one gram of mulch. Methanol and mulch were added to a vial and shaken at approximately 180 rpm for 30 minutes on a shaker table. Methanol was filtered from mulch and analyzed for actives via HPLC. Active ingredient recovery was recorded as weight percent. […]
Table 2 and Table 3 show the results of an experiment related to the recovery of herbicide active ingredient from particulate material after providing functional herbicide coating. Table 2 and Table 3 show active ingredient releasing from the mulch at one month exposure compared to non-exposed mulch in warehouse.

[2] = system: red imported fire ant (Solenopsis invicta) workers; settings: rate evaluation, 0.5 to 3 X label rate
Excerpt: Testing with red imported fire ant (Solenopsis invicta, RIFA), Argentine ant (Linepthema humile), and odorous house ant (OHA) workers. Ten inch plastic arenas (inside walls coated with Fluon® to prevent escape) were provided a layer of moistened play sand. A band of mulch was placed across the arena near one side. Between the closest side and the mulch, a micro-centrifuge tube with a universal ant diet was placed. In the larger open area of the arena was placed a water vial and a small weigh boat with either corn grit+soybean oil (RIFA) or 20% honey water (Argentine ant and OHA). Approximately 100 ants were placed in each arena. Mortality was evaluated at 6 or 7 days.

[3] = Black mulch, Warehouse (non-exposed)
[4] = Natural mulch, Warehouse (non-exposed)
[5] = Red mulch, Warehouse (non-exposed)

Structure (SMILES): COC[C@H](C)N(C(=O)CCl)c1c(C)csc1C [dimethenamid-P]
- weight percent of dimethenamid-P ([1]; Black mulch, Bottom 1 month): <LOD
- weight percent of dimethenamid-P ([1]; Black mulch, Top 1 month): 0.00003 weight percent
- weight percent of dimethenamid-P [1, 3]: 0.002 weight percent
- weight percent of dimethenamid-P ([1]; Natural mulch, Bottom 1 month): <LOD
- weight percent of dimethenamid-P ([1]; Natural mulch, Top 1 month): 0.00004 weight percent
- weight percent of dimethenamid-P [1, 4]: 0.00203 weight percent
- weight percent of dimethenamid-P ([1]; Red mulch, Bottom 1 month): 0.00000 weight percent
- weight percent of dimethenamid-P ([1]; Red mulch, Top 1 month): 0.00002 weight percent
- weight percent of dimethenamid-P [1, 5]: 0.00233 weight percent

Structure (SMILES): CN/C(=N/CC1CCOC1)N[N+](=O)[O-] (stereo not shown) [dinotefuran]
- effectiveness over the rates tested (conclusion in words) [2]: effective at all rates tested

Structure (SMILES): CCC(CC)Nc1c([N+](=O)[O-])cc(C)c(C)c1[N+](=O)[O-] [pendimethalin]
- weight percent of pendimethalin ([1]; Black mulch, Bottom 1 month): 0.00005 weight percent
- weight percent of pendimethalin ([1]; Black mulch, Top 1 month): 0.00044 weight percent
- weight percent of pendimethalin [1, 3]: 0.0044 weight percent
- weight percent of pendimethalin ([1]; Natural mulch, Bottom 1 month): 0.00026 weight percent
- weight percent of pendimethalin ([1]; Natural mulch, Top 1 month): 0.00079 weight percent
- weight percent of pendimethalin [1, 4]: 0.00674 weight percent
- weight percent of pendimethalin ([1]; Red mulch, Bottom 1 month): 0.00026 weight percent
- weight percent of pendimethalin ([1]; Red mulch, Top 1 month): 0.00054 weight percent
- weight percent of pendimethalin [1, 5]: 0.00302 weight percent
